In patent US5064811A, “De-mannosyl teicoplanin derivatives” (Gruppo LePetit S.p.A., priority 1987, dated 1991):

Columns and labels:
Staph. aureus L165 = experiment: MIC, standard broth dilution test; type: cell-based, Staphylococcus aureus; conditions: Isosensitest broth, 24 h
[1] = system: Staph. epider midis L147 ATCC 12228 (coagulase negative); experiment: MIC, standard broth dilution test; type: cell-based, Staphylococcus epidermidis; conditions: Isosensitest broth, 24 h; inoculum about 10^4-10^5 cfu/ml
Strep. pyogenes L49 C203 = experiment: MIC, standard broth dilution test; type: cell-based, Streptococcus pyogenes; conditions: Todd-Hewitt broth, 24 h; inoculum about 10^4-10^5 cfu/ml
[2] = system: Strep. pneumoniae L44 UC41; experiment: MIC, standard broth dilution test; type: cell-based, Streptococcus pneumoniae; conditions: Todd-Hewitt broth, 24 h; inoculum about 10^4-10^5 cfu/ml
[3] = system: Strep. faecalis L149 ATCC 7080; experiment: MIC, standard broth dilution test; type: cell-based, Streptococcus faecalis; conditions: Isosensitest broth, 24 h; inoculum about 10^4-10^5 cfu/ml
[4] = system: Strep. mitis L796 (clinical isolate); experiment: MIC, standard broth dilution test; type: cell-based, Streptococcus mitis; conditions: Todd-Hewitt broth, 24 h; inoculum about 10^4-10^5 cfu/ml
[5] = system: Neisseria gonorrhoeae L997 ISM68/126; experiment: MIC, standard broth dilution test; type: cell-based; conditions: GC base broth +1% Isovitalex, 48 h, CO2-enriched atmosphere; inoculum about 10^4-10^5 cfu/ml
[6] = system: Haemophilus influenzae L 970 type b ATCC 19418; experiment: MIC, standard broth dilution test; type: cell-based; conditions: Brain Heart broth +1% Supplement C, 48 h; inoculum about 10^4-10^5 cfu/ml
[7] = system: Escherichia coli L47 SKF 12140; experiment: MIC, standard broth dilution test; type: cell-based; conditions: Isosensitest broth, 24 h; inoculum about 10^4-10^5 cfu/ml
[8] = system: Proteus vulgaris L79 X19H ATCC881; type: cell-based; conditions: Isosensitest broth, 24 h (Gram-negative bacteria); inoculum about 10^4-10^5 cfu/ml
[9] = system: Pseudomonas aeruginosa L4 ATCC10145; experiment: MIC, standard broth dilution test; type: cell-based; conditions: Isosensitest broth, 24 h (Gram-negative bacteria); inoculum about 10^4-10^5 cfu/ml
[10] = system: Staph. haemolyticus L602 (clinical isolate); experiment: MIC, standard broth dilution test; type: cell-based, Staphylococcus haemolyticus; conditions: Isosensitest broth, 24 h; inoculum about 10^4-10^5 cfu/ml
[11] = Staph. aureus (30% bovine serum)
[12] = Staph. aureus L165, inoculum about 10^4-10^5 cfu/ml

Row | Compound | M.I.C. (Staph. aureus L165; Staph. aureus (10^6 cfu/ml)) | M.I.C. (Staph. aureus L165; [11]) | M.I.C. (Staph. aureus L165; [12]) | M.I.C. [1] | M.I.C. (Strep. pyogenes L49 C203) | M.I.C. [2] | M.I.C. [3] | M.I.C. [4] | M.I.C. [5] | M.I.C. [6] | M.I.C. [7] | M.I.C. [8] | M.I.C. [9] | M.I.C. [10]
1 | CCC(C)CCCCCCC(=O)N[C@H]1[C@H](Oc2c3cc4cc2Oc2ccc(cc2Cl)C(O[C@@H]2O[C@H](CO)[C@@H](O)[C@H](O)[C@H]2NC(C)=O)C2NC(=O)C(NC(=O)C4NC(=O)C4NC(=O)C(Cc5ccc(c(Cl)c5)O3)NC(=O)C(N)c3ccc(O)c(c3)Oc3cc(O)cc4c3)c3ccc(O)c(c3)-c3c(O)cc(O)cc3C(C(=O)O)NC2=O)O[C@H](CO)[C@@H](O)[C@@H]1O (some centres unmarked) [DM-TA2-4, de-mannosyl teicoplanin complex component 4] | 0.25 microgram/ml | 0.5 microgram/ml | 0.125 microgram/ml | 0.063 microgram/ml | 0.063 microgram/ml | 0.063 microgram/ml | 0.063 microgram/ml | 0.125 microgram/ml | 32 microgram/ml | 64 microgram/ml | > 128 microgram/ml | > 128 microgram/ml | > 128 microgram/ml | 0.5 microgram/ml
2 | CCCCCCCCCC(=O)N[C@H]1[C@H](Oc2c3cc4cc2Oc2ccc(cc2Cl)C(O[C@@H]2O[C@H](CO)[C@@H](O)[C@H](O)[C@H]2NC(C)=O)C2NC(=O)C(NC(=O)C4NC(=O)C4NC(=O)C(Cc5ccc(c(Cl)c5)O3)NC(=O)C(N)c3ccc(O)c(c3)Oc3cc(O)cc4c3)c3ccc(O)c(c3)-c3c(O)cc(O)cc3C(C(=O)O)NC2=O)O[C@H](CO)[C@@H](O)[C@@H]1O (some centres unmarked) [DM-TA2-3, de-mannosyl teicoplanin complex component 3] | 0.125 microgram/ml | 0.5 microgram/ml | 0.063 microgram/ml | 0.063 microgram/ml | 0.063 microgram/ml | 0.063 microgram/ml | 0.063 microgram/ml | 0.063 microgram/ml | 32 microgram/ml | 64 microgram/ml | > 128 microgram/ml | > 128 microgram/ml | 128 microgram/ml | 0.5 microgram/ml
3 | CC(=O)N[C@H]1[C@H](OC2c3ccc(c(Cl)c3)Oc3cc4cc(c3O[C@@H]3O[C@H](CO)[C@@H](O)[C@H](O)[C@H]3NC(=O)CCCCCCC(C)C)Oc3ccc(cc3Cl)CC3NC(=O)C(N)c5ccc(O)c(c5)Oc5cc(O)cc(c5)C(NC3=O)C(=O)NC4C(=O)NC3C(=O)NC2C(=O)NC(C(=O)O)c2cc(O)cc(O)c2-c2cc3ccc2O)O[C@H](CO)[C@@H](O)[C@@H]1O (some centres unmarked) [DM-TA2-2, de-mannosyl teicoplanin complex component 2] | 0.125 microgram/ml | 0.5 microgram/ml | 0.063 microgram/ml | 0.063 microgram/ml | 0.063 microgram/ml | 0.063 microgram/ml | 0.063 microgram/ml | 0.063 microgram/ml | 32 microgram/ml | 64 microgram/ml | > 128 microgram/ml | > 128 microgram/ml | > 128 microgram/ml | 0.5 microgram/ml
4 | CC(=O)N[C@H]1[C@H](OC2c3ccc(c(Cl)c3)Oc3cc4cc(c3O[C@@H]3O[C@H](CO)[C@@H](O)[C@H](O)[C@H]3NC(=O)CCCCCCCC(C)C)Oc3ccc(cc3Cl)CC3NC(=O)C(N)c5ccc(O)c(c5)Oc5cc(O)cc(c5)C(NC3=O)C(=O)NC4C(=O)NC3C(=O)NC2C(=O)NC(C(=O)O)c2cc(O)cc(O)c2-c2cc3ccc2O)O[C@H](CO)[C@@H](O)[C@@H]1O (some centres unmarked) [DM-TA2-5, de-mannosyl teicoplanin complex component 5] | 0.125 microgram/ml | 0.5 microgram/ml | 0.063 microgram/ml | 0.063 microgram/ml | 0.063 microgram/ml | 0.063 microgram/ml | 0.063 microgram/ml | 0.063 microgram/ml | 32 microgram/ml | 32 microgram/ml | > 128 microgram/ml | > 128 microgram/ml | > 128 microgram/ml | 0.25 microgram/ml
